Assay results: PMC7497625, “Machine-Vision-Enabled Salt Dissolution Analysis” (Analytical Chemistry, 2020)
≈ marks a conversion by molar mass, not a printed value. Marks after values point to notes of the source that are not given here.

Legend:
[1] = Machine-vision-based single-particle analysis (SPA) solubility measurement, pH-solubility profile; type: physicochemical
Method: The SPA measurements were carried out as already previously described by Svanbäck et al. and Štukelj et al.[17],[19],[20] Briefly, the two main components of the SPA method are the flow-through setup and the analysis software. The flow-through setup enables trapping and machine-vision tracking of drug particles under steady flow–sink–conditions. The average measurement time is 5 min. The captured images are then analyzed using custom-made software, which is capable of semiautomatic particle recognition and tracking of the individual particle morphology throughout the measurement. The decrease in size, under sink conditions, according to Noyes and Whitney, is directly proportional to the equilibrium solubility of the compound. In this way, the solubility data from the images is extracted. Depending on the number of particles, the reported solubility values are an average of up to several hundred individual particles. For in-depth description and visuals, readers are directed to the three original papers cited above.

[2] = Miniaturized shake-flask (SF) experiment in USP buffers with HPLC-UV, pH measurement and XRPD of remaining solids; type: physicochemical
Method: For NAP, both phosphate and borate buffers were used at pH 8.0. […] At 48, 72, and 96 h the rotation was stopped, pHs were measured, and samples were centrifuged at constant temperature and 21 100g for 15 min prior to sampling of the supernatant. The supernatants were appropriately diluted and analyzed with reverse-phase HPLC-UV. After 96 h, the solids were extracted and analyzed using XRPD. […] Drug concentration in the supernatants was determined using an Agilent High Performance Liquid Chromatography (HPLC) 1260 system (Agilent Technologies, Germany) coupled with a Phenomenex Gemini NX-C18, 3 μm, 100 × 4.6 mm column (Phenomenex, Torrace, CA). The temperature of the column was set to 30 °C. The mobile phase was 0.2% H3PO4:acetonitrile (40:60, v:v for DIC and 50:50, v:v for NAP) with a flow rate of 1 mL/min. The injection volume was 20 μL, and detection was performed at 276 nm for DIC and 254 nm for NAP. Standard solutions of DIC and NAP were prepared in 0.2% H3PO4:acetonitrile (50:50, v:v) and analyzed with HPLC-UV to construct the calibration curve. […] To determine the solid-state form of the initial samples, XRPD diffractograms were recorded with an Aeris diffractometer (Malvern Panalytical B.V., Almelo, The Netherlands) using Cu Kα radiation (λ = 1.540598 Å) and a divergence slit of 0.76 mm. […] Measurements were performed in triplicate with independent samples. Additional measurements using XRPD were performed for the remaining solids after the 96 h miniaturized SF experiments.

[3] = cited from earlier work
[4] = 0.05 M USP buffer Borate pH 8.0
[5] = 0.05 M USP buffer Borate pH 9.0
[6] = 0.05 M USP buffer Phosphate pH 6.0
[7] = 0.05 M USP buffer Phosphate pH 7.0
[8] = 0.05 M USP buffer Phtalate pH 3.0
[9] = 0.05 M USP buffer Phtalate pH 4.0
[10] = 0.05 M USP buffer Phtalate pH 5.0
[11] = starting material free acid, after 96 h

Compound	pHmax′ SPA (apparent pHmax) ([1]; intersect of the two regions of the SPA pH-solubility profile, started with anhydrous salt)	pHmax ([1]; linear extrapolation of pH-corrected SPA values of free acid to the SF-determined solubility of the salt (Figure 2b / 5b))	SPA solubility upon disproportionation compared to the free acid ([1]; region below pH 8)	solid-state form at end of SF experiment (XRPD) ([2]; starting material anhydrous salt, initial pH 6.0 and 8.0)	solid-state form at end of SF experiment (XRPD) ([2]; starting material salt, initial pH 2.0 and 4.0)	pHmax lit. [3]	solid-state form at end of SF experiment (XRPD) ([2]; starting material anhydrous salt, pH 8.0, borate and phosphate buffer)	solid-state form at end of SF experiment (XRPD) ([2]; starting material salt, initial pHs 2.0, 4.0 and 6.0)	solubility at 5 min ([1]; read-out: S0 SPA (intrinsic solubility)) [µg/mL]	Measured pH of miniaturized SF experiment [2, 4]	Measured pH of miniaturized SF experiment [2, 5]	Measured pH of miniaturized SF experiment ([2]; 0.05 M USP buffer HCl pH 2.0)	Measured pH of miniaturized SF experiment [2, 6]	Measured pH of miniaturized SF experiment [2, 7]	Measured pH of miniaturized SF experiment [2, 8]	Measured pH of miniaturized SF experiment [2, 9]	Measured pH of miniaturized SF experiment [2, 10]	solid-state form at end of SF experiment (XRPD) [2, 11]	Measured pH of miniaturized SF experiment ([2]; 0.05 M USP buffer Phosphate pH 8.0)
O=C(O)Cc1ccccc1Nc1c(Cl)cccc1Cl [diclofenac sodium]	7.35	7.98	higher solubility upon disproportionation	converted into its hydrate form	converted into a free acid form	∼8 ^a^, ^e													
COc1ccc2cc([C@H](C)C(=O)O)ccc2c1 [naproxen sodium]						∼8 ^c	converted into its hydrate form	converted into a free acid											
O=C(O)Cc1ccccc1Nc1c(Cl)cccc1Cl [diclofenac, Diclofenac]									0.6 ± 0.3 (≈ 2.03 µM)	7.0	7.8	2.0	6.0	6.9	3.00	4.0	4.9	remained in the same form throughout the experiment	
COc1ccc2cc([C@H](C)C(=O)O)ccc2c1 [naproxen, Naproxen]										6.0	6.8	1.9	5.8	6.6	3.0	4.1	5.0	the same form remained throughout the experiment	6.9
